Measurements from patent US20180271863A1, “TARGETING P2 PURINERGIC RECEPTORS TO TREAT HEPATOCELLULAR CARCINOMA (HCC)” (Baylor College of Medicine, priority 2015, published 2018).
Entries after “also recorded” stand apart in the source; their conditions may differ.

Columns and labels:
human hepatocytes = test: Western blotting of cyclin proteins in human hepatocytes; type: cell-based
Experimental: Normal human primary hepatocytes isolated from healthy adults (no known history of HCC) in suspension or freshly-frozen prior to shipment (Cryoport Systems, CA) were purchased from Triangle Research Labs, NC. Fresh hepatocytes were plated on collagen-coated tissue culture plates or glass coverslips in Williams E complete media with additives (10% fetal bovine serum, 2 mM glutamine, […] insulin, 4 ng/ml glucagon, […] transferrin, 2.5 ng/ml sodium selenite, 10,000 U/ml penicillin, […] streptomycin, 50 g/ml gentamycin) for 3 h to ensure hepatocyte adherence to plates. Subsequently, hepatocytes were maintained in Williams E minimal media free from serum and growth factors for 24 h prior to treatment. Human hepatocellular carcinoma derived Huh7, and Hep3B, were cultured in Minimum Essential Medium Eagle (MEM); SNU-387 was cultured in Roswell Park Memorial Institute (RPMI) medium and PLC/PRF/5 cultured in Dulbecco's Modified Eagle's medium (DMEM). All maintenance culture media were supplemented with 10% fetal bovine serum (FBS), L-Glutamine (2 mM), penicillin (100 units/ml) and streptomycin ([…]) at 37° C. and 5% CO2. Cells were maintained in serum free media (containing 2 mM L-Glutamine, 100 units/ml penicillin and ([…])) streptomycin for 24 h prior to treatment. Total protein extracts were obtained by homogenizing cells in total lysis buffer (50 mM Tris-HCl, pH 7.5, 0.5 M NaCl, 2 mM EGTA, 2 mM EDTA, 1.0% Triton X-100, 0.25% Deoxycholate, 1 m/ml pepstatin, 1.0 m/ml leupeptin, 1.0 m/ml aprotinin, 1.0 mM phenylmethylsulfonyl fluoride, 1.0 mM Dithiothreitol, 2.0 mM activated Na3VO4, and 2.0 mM NaF) and centrifuging at 14,000 rpm for 10 min (4° C.). Equal amounts of total proteins as determined by BCA protein Assay (Pierce, Rockford, Ill.) were analyzed by Western blotting. Blots were probed with antibody specific for a-tubulin or GAPDH to ensure equal loading of proteins in each lane.

Huh7 cells [1] = test: Western blotting for hippo pathway phosphorylation (Mst1/2, LATS, Yap) in Huh7 cells; type: cell-based, human; settings: for Mst1/2 phosphorylation: Huh7, serum free 24 hours, as early as 5 minutes, sustained at 4 hours; for induction of Yap phosphorylation: Huh7, 12 h treatment
Experimental: Total protein extracts were obtained by homogenizing cells in total lysis buffer and analyzed by Western blotting as described recently (Oncotarget 2015; 6:41162-41179). […] Therefore, Applicants performed in vitro studies to test whether activation of P2 purinergic receptors may affect the hippo pathway and its downstream effectors. Huh7 cells—human derived hepatocellular carcinoma cells—maintained in serum free media for 24 hours—were treated with P2 purinergic receptor agonists. […] ADP treatment alone was also sufficient to induce LATs phosphorylation (2 h-1.7 fold, 4 h-1.5 fold) (FIG. 20B). […] Hippo kinases Mst1/2 and Lats1/2 work through a phosphorylation cascade to phosphorylate Yap, thereby retaining Yap in the cytoplasm. In spite of nucleotide-mediated Mst1/2 and Lats phosphorylation, ATP, ADP and ATPγS treatment was individually insufficient to induce Yap phosphorylation. […] Similarly, ATP treatment alone increased nuclear YAP protein expression (1.7 fold) (FIG. 20D).

Huh7 cells [2] = test: Western blotting for survivin in Huh7 cells; type: cell-based, human
Text: Total protein extracts were obtained by homogenizing cells in total lysis buffer and analyzed by Western blotting as described recently (Oncotarget 2015; 6:41162-41179). Next, Applicants tested whether extracellular nucleotide treatment may have an effect on YAP target genes important in hepatocellular carcinoma. […] Moreover, P2X3 antagonist (AF-353) pretreatment attenuated ATP mediated induction of survivin (FIG. 20G).

Hep3B cells = test: BrdU incorporation (proliferation) in Hep3B cells; type: cell-based, human
Experimental: Light microscopic images (10X) of BrdU immunostained cells are also shown. Hep3B cells were maintained in serum-free conditions for 24 hours and were pre-treated with AF-353 (5 μM) for 30 minutes, prior to treatment with ATP (100 μM) for 24 hours. BrdU-positive cells are expressed as a percentage of total number of cells. Data represents mean±SEM, n=3-6, *p<0.05 vs untreated (un). To determine whether P2 purinergic receptor activation influences HCC cell proliferation, BrdU incorporation was assessed in HCC cells maintained in SFM for 24 hours and treated with ATP for 24 hours. […] Hep3B, 46%; SNU-387, 47% and PLC/PRF/5, 24%), identifying nucleotides as liver cancer cell mitogens (FIG. 7A). Normal human primary hepatocytes isolated from healthy adults (no known history of HCC) in suspension or freshly-frozen prior to shipment (Cryoport Systems, CA) were purchased from Triangle Research Labs, NC. […] Formalin-fixed and paraffin embedded liver sections from HCC patients were analyzed by immunohistochemistry with anti-P2X3 antibody (Abcam, Cambridge, Mass.). […] BrdU positive cells were counted and expressed as a percentage of the total number of cells in ten randomly selected high-power fields (20×) per coverslips.

Row | SMILES | cyclin D3 protein expression (human hepatocytes; ATPγS 24 h) | cyclin E protein expression (human hepatocytes; ATPγS 24 h) | Mst1/2 phosphorylation (Huh7 cells [1]) | induction of Yap phosphorylation (Huh7 cells [1]) | survivin protein expression (Huh7 cells [2]; ATPγS treatment alone) | effect on ATP-mediated induction of BrdU incorporation (Hep3B cells; AF-353 5 μM pre-treatment 30 minutes, ATP 100 μM 24 hours) | effect on ATP-mediated induction of cyclin D3 and cyclin E expression (human hepatocytes; AF-353 5 μM pre-treatment, ATP 24 h) | effect on ATP mediated induction of survivin (Huh7 cells [2]; AF-353 pretreatment) | proliferation (BrdU incorporation) induced by ATP (Hep3B cells; SFM 24 hours, ATP 24 hours)
1 | Nc1ncnc2c1ncn2[C@@H]1O[C@H](COP(=O)(O)OP(=O)(O)OP(O)(O)=S)[C@@H](O)[C@H]1O [ATPγS] | 2.0 fold | 2.0 fold | significantly induced | insufficient | 1.8 fold | – | – | – | –
2 | COc1cc(C(C)C)c(Oc2cnc(N)nc2N)cc1I [AF-353] | – | – | – | – | – | completely attenuated; also recorded: attenuates | completely attenuated | attenuated | –
3 | Nc1ncnc2c1ncn2[C@@H]1O[C@H](COP(=O)(O)OP(=O)(O)OP(=O)(O)O)[C@@H](O)[C@H]1O [ATP] | – | – | significantly induced | insufficient | – | – | – | – | 46%
